Drawing on patent US8609666B2, “2-morpholino-pyrido[3,2-D]pyrimidines” (Merck Serono SA, priority 2009, dated 2013), this text covers IC50 for seven molecules.

One assay has as its target CK2 protein kinase. The following applies: Fruman et al., 1998; cited from earlier work.
In assay [1] the test system is Human recombinant GST-PI3K. Kind of assay: PI3K induced-lipid phosphorylation scintillation proximity assay (neomycin-coated SPA beads). The format is biochemical. Particulars: amount necessary to achieve 50% inhibition of PI3K; 120 min at room temperature. An excerpt:
The efficacy of compounds of the invention in inhibiting the PI3K induced-lipid phosphorylation may be tested in the following binding assay. The assay combines the scintillation proximity assay technology (SPA, Amersham) with the capacity of neomycin (a polycationic antibiotic) to bind phospholipids with high affinity and specificity. The Scintillation Proximity Assay is based on the properties of weakly emitting isotopes (such as ^3H, ^125I, ^33P). Coating SPA beads with neomycin allows the detection of phosphorylated lipid substrates after incubation with recombinant PI3K and radioactive ATP in the same well, by capturing the radioactive phospholipids to the SPA beads through their specific binding to neomycin. To a 96 wells MTP containing 10 μl of the test compound of Formula (I) (solubilized in 10% DMSO; to yield a concentration of 100, 25, 5.0, 1.25, 0.312, 0.078, 0.0195, 0.00488, 0.00122 and 0.0003 μM of the test compound), the following assay components are added: 1) 10 μL of lipid micelles 2) […] of Kinase buffer ([^33P]γATP162 μM/300 nCi, MgCl2 2.5 mM, DTT 2.5 mM, Na3VO4 25 μM in Hepes 40 mM, pH 7.4) and 3) 10 μL (100 ng) of Human recombinant GST-PI3K (in Hepes 40 mM, pH 7.4, ethylenglycol 4%). After incubation at room temperature for 120 minutes, with gentle agitation, the reaction is stopped by addition of 200 μL of a solution containing 250 μg of neomycin-coated PVT SPA beads, ATP 60 mM and EDTA 6.2 mM in PBS. The assay is further incubated at room temperature for 60 minutes with gentle agitation to allow binding of phospholipids to neomycin-SPA beads. After precipitation of the neomycin-coated PVT SPA beads for 5 minutes at 1500×g, radioactive PtdIns(3)P is quantified by scintillation counting in a Wallac MicroBeta™ plate counter. The values indicated in Table I below refer to the IC50 (μM) with respect to PI3K, i.e. the amount necessary to achieve 50% inhibition of said target. Said values show a considerable inhibitory potency of pyridopyrimidine compounds with regard to PI3K.
(In general: Scintillation proximity formats need no separation of bound from free tracer.)

Each structure is given as a SMILES string.

As to `O=c1cc(N2CCOCC2)oc2c(-c3ccccc3)cccc12` [LY294002], the IC50 on CK2 protein kinase was 5 to 10 µM. For `O=C(O)c1cc(NCCO)c2nc(N3CCOCC3)nc(-c3cccc(F)c3O)c2n1` [Example 38, 4-(3-Fluoro-2-hydroxyphenyl)-8-[(2-hydroxyethyl)amino]-2-morpholin-4-ylpyrido[3,2-d]pyrimidine-6-carboxylic acid], in assay [1], the concentration for half-maximal inhibition (IC50) was 0.043 µM. With `CN(C)c1cc(C(=O)O)nc2c(-c3ccc(F)c(CO)c3)nc(N3CCOCC3)nc12` [Example 49, 8-(Dimethylamino)-4-[4-fluoro-3-(hydroxymethyl)phenyl]-2-morpholin-4-ylpyrido[3,2-d]pyrimidine-6-carboxylic acid], the IC50 in assay [1] is 0.329 µM. The same measure, in the same setting: the figure for `Cc1cc(O)ccc1-c1nc(N2CCOCC2)nc2c(N(C)CCO)cc(C(=O)O)nc12` [Example 58, 8-[(2-Hydroxyethyl)(methyl)amino]-4-(4-hydroxy-2-methylphenyl)-2-morpholin-4-ylpyrido[3,2-d]pyrimidine-6-carboxylic acid] is 0.936 µM; for `COCc1cccc(-c2nc(N3CCOCC3)nc3c(NCCO)cc(C(=O)O)nc23)c1` [Example 28, 8-(2-Hydroxy-ethylamino)-4-(3-methoxymethyl-phenyl)-2-morpholin-4-yl-pyrido[3,2-d]pyrimidine-6-carboxylic acid] it is 2.49 µM; for `CNc1cc(C(=O)O)nc2c(-c3ccc(F)cc3O)nc(N3CCOCC3)nc12` [Example 53, 4-(4-Fluoro-2-hydroxyphenyl)-8-(methylamino)-2-morpholin-4-ylpyrido[3,2-d]pyrimidine-6-carboxylic acid] it is 0.412 µM.

With `CN(C)c1cc(C(=O)O)nc2c(-c3cccc4[nH]ccc34)nc(N3CCOCC3)nc12` [Example 17, 8-Dimethylamino-4-(1H-indol-4-yl)-2-morpholin-4-yl-pyrido[3,2-d]pyrimidine-6-carboxylic acid], the IC50 in assay [1] was 0.132 µM.

One may read the IC50 as the concentration that gives 50% inhibition.
